Key:
Chymase = molecular target: T1, Chymase (Homo sapiens, UniProt P23946); experiment: Inhibition of human recombinant chymase
T1 sequence (P23946 whole entry): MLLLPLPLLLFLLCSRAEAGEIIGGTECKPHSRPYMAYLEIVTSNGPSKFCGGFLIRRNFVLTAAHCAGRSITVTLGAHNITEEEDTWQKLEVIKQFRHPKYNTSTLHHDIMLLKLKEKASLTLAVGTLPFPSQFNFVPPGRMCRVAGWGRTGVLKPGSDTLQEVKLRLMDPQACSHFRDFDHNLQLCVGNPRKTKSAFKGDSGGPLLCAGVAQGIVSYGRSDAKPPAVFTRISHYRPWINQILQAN

Cathepsin G = molecular target: T2, Cathepsin G (Homo sapiens, UniProt P08311); experiment: Inhibition of human neutrophil cathepsin G
T2 sequence (P08311 whole entry): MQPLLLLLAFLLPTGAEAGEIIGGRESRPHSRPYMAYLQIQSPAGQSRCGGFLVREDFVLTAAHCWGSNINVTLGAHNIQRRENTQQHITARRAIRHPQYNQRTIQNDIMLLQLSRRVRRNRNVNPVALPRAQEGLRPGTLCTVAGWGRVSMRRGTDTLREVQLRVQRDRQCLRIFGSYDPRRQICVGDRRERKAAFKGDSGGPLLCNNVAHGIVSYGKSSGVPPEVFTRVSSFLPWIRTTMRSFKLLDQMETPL

Neutrophil elastase = molecular target: T3, Neutrophil elastase (Homo sapiens, UniProt P08246); experiment: Inhibition of human neutrophil elastase
T3 sequence (P08246 whole entry): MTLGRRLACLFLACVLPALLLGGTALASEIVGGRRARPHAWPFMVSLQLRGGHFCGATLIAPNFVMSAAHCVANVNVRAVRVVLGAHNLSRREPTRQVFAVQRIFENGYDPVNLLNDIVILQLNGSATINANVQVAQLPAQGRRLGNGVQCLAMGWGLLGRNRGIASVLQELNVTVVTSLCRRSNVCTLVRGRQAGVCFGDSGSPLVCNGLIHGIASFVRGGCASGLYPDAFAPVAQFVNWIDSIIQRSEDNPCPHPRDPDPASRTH

[1] = Inhibition of bovine pancreatic trypsin; design: species or system Bos taurus
[2] = Inhibition of bovine pancreatic alpha chymotrypsin; design: species or system Bos taurus

Compound: O=C1CN(S(=O)(=O)c2ccc(Cl)cc2)C(=O)C(Cc2ccc3ccccc3c2)CN1 (racemic)
- IC50 (Chymase): > 10 µM

Compound: O=C1CN(S(=O)(=O)c2ccc(Cl)cc2)C(=O)C(Cc2cccnc2)CN1 (racemic)
- IC50 (Chymase): > 10 µM

Compound: O=C1CN(S(=O)(=O)c2ccc(Cl)cc2)C(=O)C(Cc2ccncc2)CN1 (racemic)
- IC50 (Chymase): > 10 µM

Compound: COc1ccc(Cl)cc1CC1CNC(=O)CN(S(=O)(=O)c2ccc(Cl)cc2)C1=O (racemic)
- IC50 (Cathepsin G): 2900 nM
- IC50 (Neutrophil elastase): > 10 µM
- IC50 [1]: > 10 µM
- IC50 [2]: 300 nM

Compound: O=C1CN(S(=O)(=O)c2ccc(Cl)cc2)C(=O)C(CC2CCCCC2)CN1 (racemic)
- IC50 (Chymase): > 10 µM

Compound: CC(C)C[C@H](NC(=O)[C@@H](NC(=O)N[C@@H](Cc1ccccc1)C(=O)O)C1CCN=C(N)N1)C(=O)N[C@H](C=O)Cc1ccccc1 (some centres undefined) [CHYMOSTATIN]
- IC50 (Chymase): 0.043 µM
